Measured values taken from patent US20090293139A1, “DOUBLE-INDUCIBLE GENE ACTIVATION SYSTEM AND ITS APPLICATIONS” (The Texas A&M University System Agency State of Texas, priority 2008, published 2009).

How the values were obtained:
caspase-3 = assay: Clonetech ApoAlert Caspase Assay, caspase-3 activity in transfected CVI cells; type: cell-based, monkey; settings: CVI cells treated for 1.5 hrs
Method: (§1) A double-inducible gene activation system was evaluated in vitro using a cell culture model. Three plasmids were constructed: 1) chimeric transcription factor, Glp65 containing progesterone receptor ligand-binding domain (PR-LBDΔ) (FIG. 1); 2) pTATA-HA-iCasp3 (myristoylated) carrying CBD; and 3) pTATA-HA-iCasp9 carrying CBD (FIGS. 1 and 2). The chimeric transcription factor and one of the two caspase plasmids were transfected into CVI cells (monkey kidney fibroblasts).

[1] = system: adult mouse ear skins and newborn mouse back skins; assay: Microscopic and histological analysis of skin (H&E); type: in vivo
Method: The skin apoptosis was evaluated by TUNEL assay (panels j-l).
Skin sections from K14-Glp65/iCasp9 newborn mice back skin were visualized by H&E stain (panels a-c), and were immunostained by keratin 14 antibody (panels d-f). […] The skin apoptosis was evaluated by TUNEL assay (panels j-l).
Apoptosis was evaluated by TUNEL staining.

[2] = system: adult mouse ear skins and newborn mouse back skins; assay: TUNEL staining of skin (apoptosis); type: in vivo
Method: (§5) Induction of the two caspases was then further studied by immunohistochemical staining with an anti-HA antibody. […] Apoptosis was evaluated by TUNEL staining.

caspase-9 = assay: Clonetech ApoAlert Caspase Assay, caspase-9 activity in transfected CVI cells; type: cell-based, monkey; settings: CVI cells treated for 1.5 hrs
Method: as §1

[3] = system: K14-Glp65/iCasp3 and K14-Glp65/iCasp9 bigenic mice; assay: Skin phenotype of adult bigenic mice after RU486 pellet and intraperitoneal CID; type: in vivo, mouse
Method: A double-inducible gene activation system was tested in vivo in two bigenic mouse lines, K14-Glp65/iCasp3 and K14-Glp65/iCasp9. The bigenic mice were generated by breeding two individual mouse lines.
The breeding of the first and second transgenic mouse lines generated bigenic mice called K14-Glp65/iCasp3 and K14-Glp65/iCasp9, which harbored both RU486 and CID regulators as depicted in FIG. 1. With the application of RU486, the Glp65 fusion protein was exclusively expressed in skin keratinocytes, which subsequently initiated caspase precursor induction.
Bigenic mice between 8 and 15 weeks of age were subjected to RU486 treatment using a 21-day-release pellet that was surgically inserted beneath the skin in the region of the posterior scapula. The addition of RU486 activates the chimeric transcription factor and allows it to bind to the GAL4 DNA binding site of the caspase precursor target gene (either icasp3 or icasp9) and induces target gene expression. After seven days of RU486 treatment, CID was applied intraperitoneally to induce self-activation of caspase precursors. Placebo pellets lacking RU486 and CID-diluent were used for control groups.

iCasp3 precursors = assay: Western blot (anti-HA) of transfected cell lysates, iCasp3; type: cell-based, monkey; settings: for expression of iCasp3 precursors: CVI cells transfected with Glp65 and pTATA-HA-iCasp3, drug alone, anti-HA Western blot
Method: as §1
(§2) One plasmid expressed a tissue-specific chimeric transcription factor (Glp65) that can be activated by RU486, which functioned as the first induction in our system. In this case, an epidermal-specific keratin 14 (K14) promoter was used to direct gene expression to the keratinocytes of the basal epidermis and hair follicles (KI4-Glp65, FIG. 1; Cao et al., 2002; Kucra et al., 1996). The second plasmid expressed the target transgene. The plasmid contained four copies of the 17-mer GAL4 binding site in the promoter region (FIG. 1). Full length of caspase-3 cDNA with CID binding domain and HA-tag fragment was cloned by polymerase chain reation (PCR) from an expression vector pSH1/M-Fv2-Yama-E (Fan et al., 1999) and was then subcloned into p17×4 TATA-H2 kd vector (Bo et al., 2005) by ClaI and BamH I to generate pTATA-HA-iCasp3 […].
(§3) Cell lysates were assessed by Western blot using an anti-HA antibody. […] With the subsequent application of CID, caspase 3 and caspase 9 were activated as evidenced by the disappearance of the caspase precursors due to the hemagglutinin (HA) tag carrying a caspase cleavage consensus site, DVPD (lanes 4 in FIGS. 3 and 4).

[4] = system: K14-Glp65/iCasp3 and K14-Glp65/iCasp9 bigenic mice; assay: Skin phenotype of neonates after RU486 in utero and topical CID; type: in vivo, mouse; settings: RU486 in utero; topical CID twice per day, after two days; compared to control littermates
Method: (§4) To closely monitor the phenotypic changes of the skin of bigenic mice after the activation of caspases through the double-inducible system, we tested system in neonates by delivering RU486 in utero. The RU486 was dissolved in sesame oil and delivered intraperitoneally for 5 days at a dosage of 100 μg/kg per day into pregnant female K14-Glp65/iCasp3 and K14-Glp65/iCasp9 bigenic mice at 14.5 days gestation. To counter the abortion side-effect of RU486, progesterone (Sigma, St. Louis, Mo.) at 0.5 mg/mouse per day was applied along with RU486. Transgenic pups were treated topically with CID on their dorsal anterior-posterior (AP) axes twice per day and monitored closely for phenotypic changes or visible signs of apoptosis. Control littermates were treated with only the diluent only without CID. […] On day four, skin biopsies were taken from the back skin of the pups and fixed in 4% paraformaldehyde.

iCasp9 = assay: Western blot (anti-HA) of transfected cell lysates, iCasp9; type: cell-based, monkey; settings: for expression of iCasp9 precursors: CVI cells transfected with Glp65 and pTATA-HA-iCasp9, drug alone, anti-HA Western blot
Method: as §1, §2, §3

caspase 9 = assay: Western blot of mouse skin tissues, induced caspase 9; type: in vivo; settings: transgenic mouse skin
Method: as §4

caspase precursors = assay: Immunohistochemical staining of skin with anti-HA antibody; type: in vivo; settings: adult mouse ear skins and newborn mouse back skins
Method: as §5

caspase 3 = assay: Western blot of mouse skin tissues, induced caspase 3; type: in vivo; settings: transgenic mouse skin
Method: as §4

[5] = subsequent application of CID after RU486, CVI cells

CC[C@H](C(=O)N1CCCC[C@H]1C(=O)O[C@H](CCc1ccc(OC)c(OC)c1)c1cccc(OCC(=O)NCC(CNC(=O)COc2cccc([C@@H](CCc3ccc(OC)c(OC)c3)OC(=O)[C@@H]3CCCCN3C(=O)[C@@H](CC)c3cc(OC)c(OC)c(OC)c3)c2)CN(C)C)c1)c1cc(OC)c(OC)c(OC)c1 [CID]
increase in caspase-3 activity (caspase-3): not | skin structure [1]: normal skin structures | TUNEL-positive nuclei (apoptosis) [2]: no or basal level of apoptosis | increase in caspase-9 activity (caspase-9): not | skin phenotype of ears ([3]; adult bigenic mice, five days following intraperitoneal CID after seven days of RU486 pellet): reddening of the surface layers of the skin and thickness | expression of iCasp3 precursors (iCasp3 precursors): No caspase precursors were induced | caspase 3 activation (disappearance of the caspase precursors) (iCasp3 precursors; [5]): activated | skin phenotype of pups [4]: exhibited peeling and appeared dehydrated | expression of iCasp9 precursors (iCasp9): No caspase precursors were induced | caspase 9 activation (disappearance of the caspase precursors) (iCasp9; [5]): activated

CC#C[C@]1(O)CC[C@H]2[C@@H]3CCC4=CC(=O)CCC4=C3[C@@H](c3ccc(N(C)C)cc3)C[C@@]21C [RU486, mifepristone]
increase in caspase-3 activity (caspase-3): not | skin structure [1]: normal skin structures | TUNEL-positive nuclei (apoptosis) [2]: no or basal level of apoptosis | expression level of induced caspase 9 (caspase 9): strong expression | increase in caspase-9 activity (caspase-9): not | expression of caspase precursors (anti-HA staining) (caspase precursors): Strong expression | skin phenotype of ears ([3]; adult bigenic mice that only received RU486 treatment): did not observe this phenotype | expression of iCasp3 precursors (iCasp3 precursors): induced the expression | expression of iCasp9 precursors (iCasp9): induced the expression | expression level of induced caspase 3 (caspase 3): strong expression
